Experiments:
[1] = Inhibitory activity against recombinant human secretory phospholipase A2 (s-PLA2) by phosphatidylcholine/deoxycholate assay (PC/DOC).
Phospholipase A2 = Phospholipase A2 (Homo sapiens, UniProt P04054); experiment: Inhibition of recombinant human secretory phospholipase A2 (sPLA2), chromogenic screening assay.
Sequence of Phospholipase A2 (P04054 whole entry): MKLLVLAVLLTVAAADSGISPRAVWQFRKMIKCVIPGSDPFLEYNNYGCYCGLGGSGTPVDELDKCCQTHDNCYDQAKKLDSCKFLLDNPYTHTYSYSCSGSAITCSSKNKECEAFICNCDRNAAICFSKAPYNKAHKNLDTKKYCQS

Structure (SMILES)	IC50 [1]	IC50 (Phospholipase A2)
CCc1c(C(=O)C(N)=O)c2cc(OCCCC(=O)O)ccn2c1Cc1ccccc1-c1ccccc1	–	140 nM
NC(=O)C(=O)c1c(C2CC2)c(Cc2ccccc2-c2ccccc2)n2cccc(OCCCC(=O)O)c12 [4-(1-Aminooxalyl-3-biphenyl-2-ylmethyl-2-cyclopropyl-indolizin-8-yloxy)-butyric acid]	–	4400 nM
COC(=O)COc1cccn2c(Cc3cccc4ccccc34)c(C3CC3)c(C(=O)C(N)=O)c12 [(1-Aminooxalyl-2-cyclopropyl-3-naphthalen-1-ylmethyl-indolizin-8-yloxy)-acetic acid methyl ester]	200 nM	23 nM
CCc1c(CC(N)=O)c2c(OCC(=O)O)cccn2c1Cc1ccccc1-c1ccccc1 [(3-Biphenyl-2-ylmethyl-1-carbamoylmethyl-2-ethyl-indolizin-8-yloxy)-acetic acid]	14 nM	14 nM
CCc1c(CC(N)=O)c2c(OCCCC(=O)O)cccn2c1Cc1ccccc1-c1ccccc1 [4-(3-Biphenyl-2-ylmethyl-1-carbamoylmethyl-2-ethyl-indolizin-8-yloxy)-butyric acid]	–	80 nM
COC(=O)COc1cccn2c(Cc3ccccc3-c3ccccc3)c(C(C)C)c(C(=O)C(N)=O)c12 [(1-Aminooxalyl-3-biphenyl-2-ylmethyl-2-isopropyl-indolizin-8-yloxy)-acetic acid methyl ester]	–	35 nM
CSc1c(C(=O)C(N)=O)c2c(OCC(=O)O)cccn2c1Cc1ccccc1-c1ccccc1 [(1-Aminooxalyl-3-biphenyl-2-ylmethyl-2-methylsulfanyl-indolizin-8-yloxy)-acetic acid]	–	16 nM
CCc1c(C(=O)C(N)=O)c2c(OCc3ccccn3)cccn2c1Cc1ccccc1-c1ccccc1 [2-[3-Biphenyl-2-ylmethyl-2-ethyl-8-(pyridin-2-ylmethoxy)-indolizin-1-yl]-2-oxo-acetamide]	–	46 nM
CCc1c(CC(N)=O)c2c(OCC(=O)O)cccn2c1Cc1cccc(Cl)c1 [[1-Carbamoylmethyl-3-(3-chloro-benzyl)-2-ethyl-indolizin-8-yloxy]-acetic acid]	52 nM	15 nM
CCc1c(Cc2ccccc2)c2ccc(OCCCC(=O)O)cn2c1C(=O)C(N)=O [4-(3-Aminooxalyl-1-benzyl-2-ethyl-indolizin-6-yloxy)-butyric acid]	–	1100 nM
CCc1c(C(=O)C(N)=O)c2cc(OCCC(=O)O)ccn2c1Cc1ccccc1-c1ccccc1	–	240 nM
COC(=O)COc1cccn2c(CC3CCCCC3)c(C3CC3)c(C(=O)C(N)=O)c12 [(1-Aminooxalyl-3-cyclohexylmethyl-2-cyclopropyl-indolizin-8-yloxy)-acetic acid methyl ester]	160 nM	43 nM
CCc1c(C(=O)C(N)=O)c2c(OCc3ccncc3)cccn2c1Cc1ccccc1-c1ccccc1 [2-[3-Biphenyl-2-ylmethyl-2-ethyl-8-(pyridin-4-ylmethoxy)-indolizin-1-yl]-2-oxo-acetamide]	–	83 nM
Cc1c(C(=O)C(N)=O)c2c(OCC(=O)O)cccn2c1CC12C[C@H]3C[C@@H](C1)C[C@@H](C2)C3 [(3-Adamantan-1-ylmethyl-1-aminooxalyl-2-methyl-indolizin-8-yloxy)-acetic acid]	–	120 nM
COc1c(C(=O)C(N)=O)c2c(OCC(=O)O)cccn2c1Cc1ccccc1-c1ccccc1 [(1-Aminooxalyl-3-biphenyl-2-ylmethyl-2-methoxy-indolizin-8-yloxy)-acetic acid]	13 nM	15 nM
CCc1c(C(=O)C(N)=O)c2c(OCCCCC(=O)O)cccn2c1Cc1ccccc1-c1ccccc1 [5-(1-Aminooxalyl-3-biphenyl-2-ylmethyl-2-ethyl-indolizin-8-yloxy)-pentanoic acid]	–	1300 nM
COC(=O)COc1cccn2c(Cc3ccccc3-c3ccccc3)c(C3CCCC3)c(C(=O)C(N)=O)c12 [(1-Aminooxalyl-3-biphenyl-2-ylmethyl-2-cyclopentyl-indolizin-8-yloxy)-acetic acid methyl ester]	–	280 nM
CCc1c(C(=O)C(N)=O)c2cc(OCC(=O)O)ccn2c1Cc1ccccc1-c1ccccc1	–	1400 nM
CCc1c(CC(N)=O)c2c(OCC(O)CC)cccn2c1Cc1cccc(Cl)c1 (centres undefined) [2-[3-(3-Chloro-benzyl)-2-ethyl-8-(2-hydroxy-butoxy)-indolizin-1-yl]-acetamide]	–	19000 nM
COC(=O)COc1cccn2c(Cc3ccccc3-c3ccccc3)c(C(C)(C)C)c(C(=O)C(N)=O)c12 [(1-Aminooxalyl-3-biphenyl-2-ylmethyl-2-tert-butyl-indolizin-8-yloxy)-acetic acid methyl ester]	–	100 nM

Other lines, results leading:

IC50 [1]	IC50 (Phospholipase A2)	Structure (SMILES)
30 nM	21 nM	CCc1c(C(=O)C(N)=O)c2c(OCC(=O)O)cccn2c1CC1CCCCC1 [(1-Aminooxalyl-3-cyclohexylmethyl-2-ethyl-indolizin-8-yloxy)-acetic acid]
3 nM	6 nM	CCc1c(C(=O)C(N)=O)c2c(OCC(=O)O)cccn2c1Cc1cccc(Cl)c1 [[1-Aminooxalyl-3-(3-chloro-benzyl)-2-ethyl-indolizin-8-yloxy]-acetic acid]
5 nM	8 nM	CCc1c(C(=O)C(N)=O)c2c(OCC(=O)O)cccn2c1Cc1ccccc1 [(1-Aminooxalyl-3-benzyl-2-ethyl-indolizin-8-yloxy)-acetic acid]
80 nM	38 nM	CCc1c(C(=O)C(N)=O)c2c(OCC(=O)OC)cccn2c1C/C=C/c1ccccc1 [[1-Aminooxalyl-2-ethyl-3-((E)-3-phenyl-allyl)-indolizin-8-yloxy]-acetic acid methyl ester]
78 nM	17 nM	CCCC(C)Cc1c(CC)c(C(=O)C(N)=O)c2c(OCC(=O)O)cccn12 (centres undefined) [[1-Aminooxalyl-2-ethyl-3-(2-methyl-pentyl)-indolizin-8-yloxy]-acetic acid]
5 nM	11 nM	CCCCc1ccc(Cc2c(CC)c(C(=O)C(N)=O)c3c(OCC(=O)O)cccn23)cc1 [[1-Aminooxalyl-3-(4-butyl-benzyl)-2-ethyl-indolizin-8-yloxy]-acetic acid]
3 nM	9 nM	CCc1c(C(=O)C(N)=O)c2c(OCC(=O)O)cccn2c1Cc1cccc(C(F)(F)F)c1 [[1-Aminooxalyl-2-ethyl-3-(3-trifluoromethyl-benzyl)-indolizin-8-yloxy]-acetic acid]
–	200 nM	CCc1c(C(=O)C(N)=O)c2c(OCCCC(=O)O)cccn2c1Cc1ccccc1 [4-(1-Aminooxalyl-3-benzyl-2-ethyl-indolizin-8-yloxy)-butyric acid]
1.3 nM	6 nM	CCc1c(C(=O)C(N)=O)c2c(OCC(=O)O)cccn2c1Cc1ccccc1Cc1ccccc1 [[1-Aminooxalyl-3-(2-benzyl-benzyl)-2-ethyl-indolizin-8-yloxy]-acetic acid]
–	51 nM	CCc1c(C(=O)C(N)=O)c2c(OCC(=O)O)cccn2c1CCc1ccccc1 [(1-Aminooxalyl-2-ethyl-3-phenethyl-indolizin-8-yloxy)-acetic acid]
13 nM	11 nM	CCc1c(C(=O)C(N)=O)c2c(OCC(=O)O)cccn2c1Cc1cccs1 [(1-Aminooxalyl-2-ethyl-3-thiophen-2-ylmethyl-indolizin-8-yloxy)-acetic acid]
3 nM	8 nM	Cc1c(C(=O)C(N)=O)c2c(OCC(=O)O)cccn2c1Cc1ccccc1 [(1-Aminooxalyl-3-benzyl-2-methyl-indolizin-8-yloxy)-acetic acid]
88 nM	29 nM	NC(=O)C(=O)c1c(C2CC2)c(CC2CCCC2)n2cccc(OCC(=O)O)c12 [(1-Aminooxalyl-3-cyclopentylmethyl-2-cyclopropyl-indolizin-8-yloxy)-acetic acid]
–	62 nM	CCCCCc1c(CC)c(C(=O)C(N)=O)c2c(OCC(=O)O)cccn12 [(1-Aminooxalyl-2-ethyl-3-pentyl-indolizin-8-yloxy)-acetic acid]
–	3400 nM	CCc1c(C(=O)C(N)=O)c2c(OCCCC(=O)O)cccn2c1CC1CCCCC1 [4-(1-Aminooxalyl-3-cyclohexylmethyl-2-ethyl-indolizin-8-yloxy)-butyric acid]
49 nM	46 nM	NC(=O)C(=O)c1c(C2CC2)c(Cc2ccccc2)n2cccc(OCC(=O)O)c12 [(1-Aminooxalyl-3-benzyl-2-cyclopropyl-indolizin-8-yloxy)-acetic acid]
–	6600 nM	CCc1c(C(=O)C(N)=O)c2c(OCC(=O)O)cccn2c1Cc1cc(C(C)(C)C)cc(C(C)(C)C)c1 [[1-Aminooxalyl-3-(3,5-di-tert-butyl-benzyl)-2-ethyl-indolizin-8-yloxy]-acetic acid]
22 nM	14 nM	Cc1c(C(=O)C(N)=O)c2c(OCC(=O)O)cccn2c1CC1CCCC1 [(1-Aminooxalyl-3-cyclopentylmethyl-2-methyl-indolizin-8-yloxy)-acetic acid]
135 nM	30 nM	CCc1c(C(N)=O)c2c(OCC(=O)O)cccn2c1Cc1cccc2ccccc12 [(1-Carbamoyl-2-ethyl-3-naphthalen-1-ylmethyl-indolizin-8-yloxy)-acetic acid]
–	17 nM	CCc1c(C(=O)C(N)=O)c2c(OCC(=O)OC)cccn2c1Cc1ccccc1-c1ccccc1 [(1-Aminooxalyl-3-biphenyl-2-ylmethyl-2-ethyl-indolizin-8-yloxy)-acetic acid methyl ester]
120 nM	36 nM	CCc1c(C(=O)C(N)=O)c2c(OCC(=O)O)cccn2c1Cc1ccccc1[N+](=O)[O-] [[1-Aminooxalyl-2-ethyl-3-(2-nitro-benzyl)-indolizin-8-yloxy]-acetic acid]
–	> 50000 nM	CCc1c(C(=O)C(=O)NC)c2c(OCC(=O)O)cccn2c1Cc1ccccc1 [(3-Benzyl-2-ethyl-1-methylaminooxalyl-indolizin-8-yloxy)-acetic acid]
–	51 nM	CCc1c(C(=O)C(N)=O)c2c(OCC(=O)OC)cccn2c1CCc1ccccc1 [(1-Aminooxalyl-2-ethyl-3-phenethyl-indolizin-8-yloxy)-acetic acid methyl ester]
–	> 50000 nM	CCc1c(C(=O)C(=O)N(C)C)c2c(OCC(=O)O)cccn2c1Cc1ccccc1 [(3-Benzyl-1-dimethylaminooxalyl-2-ethyl-indolizin-8-yloxy)-acetic acid]

From BindingDB's records for doi:10.1021/jm960395q (Shionogi, 1996)
